The source of these data is patent US8222008B2, “Methods and compositions for treating cancer” (The Administrators of The Tulane Educational Fund, priority 2003, dated 2012).

The test system of this assay is normal fibroblasts. Nature of the assay: Phase micrographs, apoptotic morphology. It is filed as cell-based, human. The note with it: normal cells with CDME added, TNF-α exposure. An excerpt: Phase micrographs (not shown) were also obtained of normal fibroblasts after TNF-α exposure alone, in normal fibroblasts in CDME, and in nephropathic fibroblasts after TNF-α exposure alone. Typical apoptotic morphology was observed, i.e., typical blebs in the plasma membrane are seen after treatment with TNF-a in both normal and cystinotic cell lines and the modulating effects of MEA and CDME was seen.

Consider `COC(=O)[C@@H](N)CSSC[C@H](N)C(=O)OC` [CDME, cystine dimethyl ester], for which the “apoptotic morphology in phase micrographs” value is recorded as “Enhanced apoptosis”.
